Data set [1] has as its target T1, KIT V560G (HMC-1.1 cells) (Homo sapiens, UniProt P10721, V560G).
T1 construct: endogenous in cells; host or cells: HMC-1.1 (subclone of the human mast cell leukemia line HMC-1)
Kind of data set: KIT phosphorylation by immunoprecipitation and Western blotting in HMC-1.1 cells. The class given is cell-based. To be noted: 1 μM, 4 hours. The procedure: (§1) In case of Ton.Kit.wt cells, KIT phosphorylation is induced by adding rhSCF (100 ng/ml). Immunoprecipitation (IP) and Western blotting are performed as described previously.^32 In brief, cells are washed at 4° C. and resuspended in RIPA buffer (1 ml buffer per 10^8 cells) consisting of 50 mM Tris, 150 mM sodium chloride (NaCl), 1% nonidet P40 (NP-40), 0.25% deoxycholic acid, 0.1% sodium dodecyl sulfate (SDS), 1 mM ethylene-diamine-tetraacetic acid (EDTA), 1 mM sodium fluoride (NaF), 1 mM phenylmethylsulfonyl fluoride (PMSF) and 1 mM sodium orthovanadate (Na3VO4). After incubation in RIPA buffer supplemented with proteinase inhibitor cocktail (Roche) for 30 minutes at 4° C. (vortexed vigorously every 5 minutes), lysates are centrifuged to remove insoluble particles. For IP, lysates from 1×10^7 cells are incubated with anti-KIT antibody SR1^37 (kindly provided by Dr. V. Broudy, University of Washington, Seattle, Wash.) or with the anti-KIT antibody 1C1^38 (kindly provided by Dr. H.-J. Bühring, University of Tübingen, Germany) and protein G Sepharose beads (Amersham) in IP-buffer (50 mM Tris-Cl, pH 7.4, 150 mM NaCl, 100 mM NaF, and 1% NP40) at 4° C. overnight. Then, beads are washed 3 times in IP buffer. […] Membranes are blocked for 1 hour in 5% blocking reagent (Roche) and are then incubated with anti-KIT antibody 1C1 or with the monoclonal antibody 4G10 (Upstate Biotechnology, Lake Placid, N.Y.) directed against tyrosine-phosphorylated proteins, at 4° C. overnight. Antibody reactivity is made visible by sheep anti-mouse IgG antibody and Lumingen PS-3 detection reagent (both from Amersham), and a CL-Xposure film (Pierce Biotechnology, Rockford, Ill.).
(§2) In case of Ton.Kit.wt cells, KIT phosphorylation was induced by adding rhSCF (100 ng/ml). […]

For data set [2], the target named is T2, wt KIT (Ton.Kit.wt Ba/F3 cells) (Homo sapiens, UniProt P10721).
T2 construct: expressed in transfected cells
As to the kind of experiment: KIT phosphorylation by immunoprecipitation and Western blotting in Ton.Kit.wt cells. The format is cell-based. The following applies: 1 μM, 4 hours; doxycycline, SCF 100 ng/ml. On the procedure: as §1, §2

Data set [3] has as its system HMC-1.2 cells. As to the kind of experiment: Apoptosis in HMC-1.2 cells (light and electron microscopy, annexin V/PI, Tunel). The format is cell-based, human. To be noted: 1 μM, 24 hours. On the procedure:
For flow cytometric determination of apoptosis and cell viability, combined annexin V/propidium iodide staining is performed. […] Thereafter, cells are washed in PBS and then are incubated with annexinV-APC (Alexis Biochemicals, Lausen, Switzerland) in binding buffer containing HEPES (10 mM, pH 7.4), NaCl (140 mM), and CaCl2 (2.5 mM). Thereafter, propidium iodide (1 μg/ml) is added. Cells are then washed and analyzed by flow cytometry on a FACSCalibur (Becton Dickinson).

In data set [4] the test system is HMC-1.2 cells. As to the kind of experiment: Cell surface antigen expression on HMC-1.2 cells by flow cytometry. The class given is cell-based, human. To be noted: 24 hours. On the procedure:
After incubation with drugs, HMC-1 cells are washed and subjected to single color flow cytometry using PE-conjugated antibodies against MC antigens known to be overexpressed on neoplastic MC in SM (compared to normal MC) and/or are expressed at an early stage of mastopoiesis (CD2, CD13, CD63, CD117, CD164, CD203c).^45-47 Flow cytometry is performed on a FACSan (Becton Dickinson) as described previously.^29
Flow cytometry was performed on a FACScan (Becton Dickinson) as described.^30,37,51
A general note: A flow cytometer gives signals particle by particle.

For data set [5], the system named is HMC-1.1 cells.
In data set [6] the test system is HMC-1.2 cells.
Data set [7] relates to HMC-1.2 cells. As to the kind of experiment: Apoptosis in HMC-1.2 cells (light and electron microscopy, annexin V/PI, Tunel). To be noted: 24 hours; for apoptosis in HMC-1.2 cells by light microscopy: various concentrations. The format is cell-based, human.
Data set [8] relates to HMC-1.1 cells. As to the kind of experiment: Apoptosis in HMC-1.1 cells (light and electron microscopy, Tunel). To be noted: 24 hours; for apoptosis in HMC-1.1 cells by Tunel assay: 1 μM; for apoptosis in HMC-1.1 cells by light microscopy: various concentrations.
For data set [9], the system named is HMC-1.1 cells. As to the kind of experiment: cells. To be noted: Homo sapiens, read-out: IC50, 3H-thymidine uptake in HMC-1.1 cells.
In data set [10] the test system is HMC-1.2 cells. As to the kind of experiment: cells. The following applies: Homo sapiens, read-out: IC50, 3H-thymidine uptake in HMC-1.2 cells.
Data set [11] has as its system normal bm cells. Kind of data set: 3H-thymidine uptake in normal bone marrow cells (control). The format is cell-based, human. To be noted: control sample, not shown. On the procedure:
Both patients gave informed consent before bm puncture. The bm aspirate is obtained from the posterior iliac crest and collected in syringes containing preservative-free heparin. Cells are layered over Ficoll to isolate mononuclear cells (MNC).
In select experiments, HMC-1 cells (both subclones) are incubated with various concentrations of IFNα (0.1-500,000 U/ml) or 2CdA (0.005-10 μg/ml).
The bm aspirate samples were collected in syringes containing preservative-free heparin. Cells were layered over Ficoll to isolate mononuclear cells (MNC). […] Both patients gave written informed consent before bm puncture or blood donation. The study was approved by the local institutional review board and was conducted in accordance with the declaration of Helsinki.
Filters were air-dried, and the bound radioactivity was counted in a β-counter (Top-Count NXT, Packard Bioscience). […] All experiments were performed in triplicates.

A short description of data set [12]: Human trials, Maximum Tolerated Dose. The format is in vivo.
Data set [13] has as its system Ton.Kit.wt cells (Ba/F3 with inducible wt KIT). As to the kind of experiment: cells. To be noted: Mus musculus, BaF3, 48 h, read-out: IC50, SCF-dependent growth of doxycycline-exposed Ton.Kit.wt cells.
For data set [14], the system named is non-transfected Ba/F3 cells. To be noted: not shown.
Where [15] appears, read: 1 μM, dasatinib various concentrations.
The mark [16] stands for this setting: PKC412 1 μM, dasatinib various concentrations.

≈ marks a conversion by molar mass, not a printed value. Where “and” joins values, the source holds several entries; their conditions need not be identical. Equal entries are not always repeated. Entries after “also recorded” stand apart in the source; their conditions may differ. Where two headings read alike, the source gives them in different places.

T2 sequence (P10721 26-976): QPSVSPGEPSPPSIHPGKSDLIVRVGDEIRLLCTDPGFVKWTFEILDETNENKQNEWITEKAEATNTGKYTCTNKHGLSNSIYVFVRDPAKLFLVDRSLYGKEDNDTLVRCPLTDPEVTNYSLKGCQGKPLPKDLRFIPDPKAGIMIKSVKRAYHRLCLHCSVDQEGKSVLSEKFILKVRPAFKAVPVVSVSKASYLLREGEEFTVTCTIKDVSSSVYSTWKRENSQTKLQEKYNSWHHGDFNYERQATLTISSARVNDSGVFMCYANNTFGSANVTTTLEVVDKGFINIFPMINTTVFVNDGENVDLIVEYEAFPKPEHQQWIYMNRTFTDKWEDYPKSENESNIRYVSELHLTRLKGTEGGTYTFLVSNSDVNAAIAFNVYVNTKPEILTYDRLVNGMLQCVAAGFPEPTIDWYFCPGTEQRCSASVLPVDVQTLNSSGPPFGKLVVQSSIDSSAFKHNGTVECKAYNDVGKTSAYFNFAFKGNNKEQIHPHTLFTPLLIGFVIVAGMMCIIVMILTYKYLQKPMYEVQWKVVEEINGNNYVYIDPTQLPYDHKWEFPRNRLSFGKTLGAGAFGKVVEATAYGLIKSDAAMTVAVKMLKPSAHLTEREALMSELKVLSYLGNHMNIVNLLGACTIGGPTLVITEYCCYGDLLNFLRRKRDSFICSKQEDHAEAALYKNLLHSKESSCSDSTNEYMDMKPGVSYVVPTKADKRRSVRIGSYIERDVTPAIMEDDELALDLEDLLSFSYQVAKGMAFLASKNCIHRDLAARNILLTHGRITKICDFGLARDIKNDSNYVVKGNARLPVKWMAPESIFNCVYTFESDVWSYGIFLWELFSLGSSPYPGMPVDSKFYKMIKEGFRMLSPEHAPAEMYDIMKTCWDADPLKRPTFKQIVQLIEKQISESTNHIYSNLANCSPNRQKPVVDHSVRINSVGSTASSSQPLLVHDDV
T1 sequence (P10721 26-976 V560G): as the sequence (P10721 26-976) above, with V535G counted along it

As to `Cc1ccc(NC(=O)c2ccc(CN3CCN(C)CC3)cc2)cc1Nc1nccc(-c2cccnc2)n1` [imatinib, reference compound], the “KIT phosphorylation in HMC-1.1 cells” value in data set [1] was “reduced KIT phosphorylation”. Also, the “SCF-induced phosphorylation of KIT in Ton.Kit.wt cells” value (from here on “SCF-induced phosphorylation of KIT”) in data set [2] is listed as “decreased the SCF-induced phosphorylation of KIT”. Moreover, the “apoptosis in HMC-1.2 cells by annexinV/propidium iodide flow cytometry and Tunel assay” value in [3] is listed as “showed no effects on HMC-1.2 cells”. Moreover, the “expression of CD antigens on HMC-1.2 cells” value in data set [4] (1 μM) is “no significant effects”. The “expression of KIT (CD117) on HMC-1.2 cells” value (shortened to “expression of KIT (CD117)”) in [4] (setting [15]) is recorded as “slight decrease”. For the same compound, the 50% inhibitory concentration (IC50) – broadly, the midpoint of a concentration-inhibition curve – in data set [5] was 10 to 30 nM. The “antiproliferative effect on HMC-1.2 cells” value in data set [6] (48 hours) is listed as “no significant antiproliferative effects”. Also, the “apoptosis in HMC-1.2 cells by light microscopy” value in [7] is listed as “showed no effects on HMC-1.2 cells”. Further, in [8], the “apoptosis in HMC-1.1 cells by Tunel assay” value (“apoptosis … by Tunel assay” for short) was “induced apoptosis only in HMC-1.1 cells; also recorded: potent apoptosis-inducing effects only in HMC-1.1 cells” and the “apoptosis in HMC-1.1 cells by light microscopy” value is reported as “produce apoptosis in HMC-1.1 cells”.

As for `Nc1nc(Cl)nc2c1ncn2[C@H]1C[C@H](O)[C@@H](CO)O1` [2CdA, 2-chlorodeoxyadenosine], the figures for the half-inhibitory concentration (IC50) in data set [9] and in data set [10] were 0.1 to 0.3 µg/mL (≈ 0.35 to 1.05 µM) and 0.01 to 0.02 µg/mL (≈ 0.035 to 0.07 µM), respectively.

Turning to `CO[C@@H]1[C@H](N(C)C(=O)c2ccccc2)C[C@H]2O[C@]1(C)n1c3ccccc3c3c4c(c5c6ccccc6n2c5c31)C(=O)NC4` [PKC412, N-[(9S,10R,11R,13R)-2,3,10,11,12,13-hexahydro-10-methoxy-9-methyl-1-oxo-9,13-epoxy-1H,9H-diindolo[1,2,3-gh:3′,2′,1′-1m]pyrrolo[3,4-j][1,7]benzodiazonin-11-yl]-N-methylbenzamide], the “KIT phosphorylation in HMC-1.1 cells” value in [1] was “decreased phosphorylation of KIT”. Besides, the “SCF-induced phosphorylation of KIT” value in data set [2] is “decreased the SCF-induced phosphorylation of KIT”. Besides, in data set [11], the “effect on 3H-thymidine uptake in normal bm cells” value is “showed no effect; also recorded: no effects”. Moreover, the “apoptosis in HMC-1.2 cells by annexinV/propidium iodide flow cytometry and Tunel assay” value in data set [3] is “induce apoptosis in HMC-1.2; also recorded: also induced apoptosis in both cell lines; also recorded: produced apoptosis in most HMC-1.1 and HMC-1.2 cells”. The “expression of CD203c on HMC-1.2 cells” value in data set [4] (1 μM) is reported as “no significant effects”. The “expression of KIT (CD117)” value in [4] (setting [15]) is listed as “slight decrease”. In [4] (PKC412 1 μM or various, dasatinib various concentrations), the “expression of CD63 on HMC-1.2 cells” value is recorded as “significant decrease; also recorded: dose-dependently decreased expression of CD63”. Moreover, in [4] (setting [16]), the “expression of CD2 on HMC-1.2 cells” value is reported as “significant decrease”, the “expression of CD13 on HMC-1.2 cells” value is listed as “no significant effects” and the “expression of CD164 on HMC-1.2 cells” value is recorded as “significant decrease”. Also, in data set [12], the “Maximum Tolerated Dose (MTD), total dose” value turned out to be 225 mg/day. Moreover, the “apoptosis in HMC-1.2 cells by electron microscopy” value in data set [7] (1 μM) was “produce apoptosis in HMC-1.2 cells”. In addition, the “apoptosis in HMC-1.2 cells by light microscopy” value in data set [7] was “induce apoptosis in both HMC-1 subclones in a dose-dependent manner; also recorded: also found to induce apoptosis in both HMC-1 subclones”. In [8], the “apoptosis … by Tunel assay” value was “also induced apoptosis in both cell lines; also recorded: produced apoptosis in most HMC-1.1 and HMC-1.2 cells”; the “apoptosis in HMC-1.1 cells by light microscopy” value is listed as “induce apoptosis in both HMC-1 subclones in a dose-dependent manner; also recorded: also found to induce apoptosis in both HMC-1 subclones”.

As for `Cc1nc(Nc2ncc(C(=O)Nc3c(C)cccc3Cl)s2)cc(N2CCN(CCO)CC2)n1` [dasatinib, reference compound], the IC50 lay within 200 to 500 nM in data set [6] and 1 to 10 nM in [13].

Take `Cc1cn(-c2cc(NC(=O)c3ccc(C)c(Nc4nccc(-c5cccnc5)n4)c3)cc(C(F)(F)F)c2)cn1` [AMN107, 4-Methyl-3-[[4-(3-pyridinyl)-2-pyrimidinyl]amino]-N-[5-(4-methyl-1H-imidazol-1-yl)-3-(trifluoromethyl)phenyl]benzamide]: the “KIT phosphorylation in HMC-1.1 cells” value in [1] is on record as “strongly reduced KIT phosphorylation”. Besides, the “SCF-induced phosphorylation of KIT” value in data set [2] is recorded as “decreased the SCF-induced phosphorylation of KIT”. In data set [4] (1 μM), the “expression of CD antigens on HMC-1.2 cells” value is “no significant effects”. The “expression of KIT (CD117)” value in data set [4] (setting [15]) is “slight decrease”. The half-inhibitory concentration (IC50) in data set [5] was 3 to 10 nM and 5 to 10 nM; in data set [6], 1000 to 5000 nM; in data set [13], 30 to 300 nM. In data set [14], the “growth-inhibitory effect on control (non-transfected) Ba/F3 cells” value is given as “neither doxycycline (1 μg/ml), nor the TK inhibitors (imatinib, PKC412, AMN107), showed growth-inhibitory effects”. The “apoptosis in HMC-1.2 cells by light microscopy” value in data set [7] is recorded as “induce apoptosis in both HMC-1 subclones in a dose-dependent manner”. Moreover, the “apoptosis … by Tunel assay” value in [8] is reported as “potent apoptosis-inducing effects only in HMC-1.1 cells”. The “apoptosis in HMC-1.1 cells by light microscopy” value in data set [8] is given as “induce apoptosis in both HMC-1 subclones in a dose-dependent manner”.

Values taken from patent publication US8076321B2, “Compositions for treatment of systemic mastocytosis” (priority 2005, dated 2011).
